The target of test [1] is T1, hNNMT (Homo sapiens, UniProt P40261).
T1 sequence (P40261 1-264): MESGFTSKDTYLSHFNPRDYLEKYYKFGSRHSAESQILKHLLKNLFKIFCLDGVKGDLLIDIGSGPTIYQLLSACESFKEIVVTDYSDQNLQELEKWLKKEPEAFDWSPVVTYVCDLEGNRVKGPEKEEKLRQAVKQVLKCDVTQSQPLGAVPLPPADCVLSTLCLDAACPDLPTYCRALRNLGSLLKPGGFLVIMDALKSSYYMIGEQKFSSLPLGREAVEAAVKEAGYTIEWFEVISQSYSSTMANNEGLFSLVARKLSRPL
As to the kind of experiment: Fluorescence based NNMT enzymatic assay (human). In kind it is biochemical. Conditions: recombinant human NNMT, fluorescence of an MNA derivative; for IC50: read-out: hNNMT IC50. As for the experimental part: (§1) NNMT activity was measured by a fluorescence based assay as previously described. Briefly, Inhibitors were screened using human, mouse and monkey NNMT enzymes at different concentrations. The final assay reaction mixture contained a buffer of 100 mM Tris Hcl pH 7.5, 0.04% BSA, 2 mM Dithiothreitol and 1% DMSO. A fluorescent product 2, 7- naphthyridine was measured in a Tecan reader with excitation at 375 nm and emission at 430 nm. The IC50 values were determined by fitting the inhibition curves (percent inhibition versus inhibitor concentration) using a four parametric sigmoidal dose response in graph pad prism.

In another test the target is T2, mouse NNMT (Mus musculus, UniProt O55239).
T2 sequence (O55239 1-264): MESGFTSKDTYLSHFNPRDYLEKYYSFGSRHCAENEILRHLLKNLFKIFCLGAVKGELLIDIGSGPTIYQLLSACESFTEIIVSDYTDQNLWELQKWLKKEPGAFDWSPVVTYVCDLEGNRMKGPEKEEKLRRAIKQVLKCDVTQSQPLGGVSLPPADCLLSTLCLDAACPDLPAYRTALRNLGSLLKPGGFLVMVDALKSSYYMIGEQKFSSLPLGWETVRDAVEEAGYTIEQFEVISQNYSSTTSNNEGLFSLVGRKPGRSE
Description: Fluorescence based NNMT enzymatic assay (mouse). In kind it is biochemical. Conditions: recombinant mouse NNMT, fluorescence of an MNA derivative; read-out: mNNMT IC50. As for the experimental part: as §1

The subject of test [2] is NNMT (endogenous MNA levels). As to the kind of experiment: Determination of MNA in cells (Target engagement). The class given is cell-based, human. Conditions: maximal MNA reduction relative to control without compound. As for the experimental part: (§2) As next steps, cellular assays using the human U2OS cell line were carried out. This assay, described in[6], measures inhibition of endogenous NNMT, without recombinant expression, by quantification of MNA via LC–MS/MS. […] EC50 values were higher by a factor of ~ 30 compared to IC50 values on the isolated recombinant hNNMT, probably reflecting low cell membrane permeability.

For test [3], the target named is T3, endogenous NNMT in U2OS cells (Homo sapiens, UniProt P40261).
T3 construct: endogenous in cells; host or cells: U2OS (human bone osteosarcoma)
T3 sequence (P40261 1-264): T1 sequence (P40261 1-264)
Description: Cell based U2OS assay (endogenous NNMT, MNA by LC–MS/MS). Conditions: 24 h treatment; for EC50: read-out: Cell based inhibition in U2OS EC50. As for the experimental part: as §2
The cell based assay with Human bone osteosarcoma (U2OS) cell line was performed using procedures described before (6). Briefly, the cells were seeded into a 96 well cell culture plate followed by incubation for 24 h at 37 °C, 5% CO2, and 95% humidity. Cell culture media was replaced with 100 µl of medium/ inhibitor mixture at different concentrations and incubated for another 24 h. The cells were processed and […] of supernatant was transferred into 96 well plate (Costar 3364) and analyzed by LC–MS/MS. The IC50 values were determined by fitting the inhibition curves (percent inhibition versus inhibitor concentration) using a four parametric sigmoidal dose response graph pad prism.

Test [4] addresses T1, hNNMT. Description: Thermal shift assay. The note with it: for shift in melting temperature (Tm) in presence of SAM / shift in melting temperature (Tm) in presence of SAH: hNNMT; for shift in melting temperature (Tm) in presence of SAM: 5 uM SAM, 10 uM compound; for shift in melting temperature (Tm) in presence of SAH: enzyme:SAH:compound ~ 1:5:10 (1 uM protein, 5 uM SAH, 10 uM compound).
Description: Thermal shift assay was performed to assess the binding of tricyclic compounds [(6) = JBSNF-000028, (8) = JBSNF-000107] to hNNMT prior to co-crystallization studies.

Another test has as its system NNMT. Conditions: published NNMT inhibitor; cited from earlier work.

Where “and” joins values, the source holds several entries; their conditions need not be identical. Equal values may be shown once.

As to `Br.N=C1N(CCCc2ccccc2F)Cc2cccc3c2N1CCO3` [Compound (22)], on hNNMT [1], the “hNNMT IC50” value was “inactive” and the IC50 – broadly, the concentration that inhibits the measured activity by half – is above 30000 nM.

`CN1CCc2cccc3c2N(CC3)C1=N` [Compound (27)]: the half-inhibitory concentration (IC50) on hNNMT [1] is above 3000 nM.

As for `Br.N=C1N(CC(F)(F)F)Cc2cc(F)cc3c2N1CCO3` [Compound (21)], at hNNMT [1], the “hNNMT IC50” value is “inactive” and the 50% inhibitory concentration (IC50) is above 30000 nM.

In the case of `CN1Cc2cccc3c2N(CCC3)C1=N` [Compound (1)], the IC50 on mouse NNMT was determined as 180 ± 10 nM. The “% MNA reduction” value in test [2] turned out to be 30%. The IC50 at hNNMT [1] stood at 130 ± 80 nM. Moreover, in test [3], the “Cell based inhibition in U2OS EC50” value is recorded as “active” and the EC50 – broadly, the midpoint of the concentration-response curve – was 2500 ± 300 nM.

In the case of `CN1Cc2cccc3cccc(c23)C1=N` [(24)], at hNNMT [1], the half-inhibitory concentration (IC50) is above 10000 nM.

On to `CN1Cc2c3c(nn2C)CCCN3C1=N` [Compound (25)], for which the IC50 at hNNMT [1] was above 30000 nM.

`CN1Cc2cccc3c2N(CC3)C1=O` [(7), 2-methyl-1,2,5,6-tetrahydro-3H-pyrrolo[3,2,1-ij]quinazolin-3-one]: the “hNNMT IC50” value at hNNMT [1] is “inactive”.

For `CN1Cc2cccc3c2N(CCO3)C1=N` [Compound (12)], the IC50 was found to be 380 ± 20 nM on mouse NNMT and 180 ± 20 nM on hNNMT [1].

For `Br.CN1Cc2c(F)c(F)cc3c2N(CC3)C1=N` [Compound (9), 8,9-difluoro-2-methyl-1,2,5,6-tetrahydro-3H-pyrrolo[3,2,1-ij]quinazolin-3-imine hydrobromide], the 50% inhibitory concentration (IC50) is above 3000 nM on mouse NNMT and 490 ± 40 nM at hNNMT [1]. In addition, the “% MNA reduction” value in test [2] turned out to be 43%. Also, in test [3], the 50% effective concentration (EC50) is above 3000 nM.

Take `CN(C)C(=O)N1CCN2C(=N)N(C)Cc3cccc1c32` [Compound (17)]: the IC50 at hNNMT [1] is above 30000 nM.

In the case of `CN1Cc2cc(F)cc3c2N(CC3)C1=N` [Compound (8)], the IC50 at mouse NNMT is 1100 ± 500 nM; at hNNMT [1] it was 38 nM and 39 nM. Moreover, in test [2], the “% MNA reduction” value is 30%. The “Tm in presence of SAH” value at hNNMT [4] (hNNMT 1 uM, SAH 5 uM, compound 10 uM, protein with SAH alone Tm=39°C) came out at 50 °C. Also, at hNNMT [4] (hNNMT 1 uM, SAM 5 uM, compound 10 uM, protein with SAM alone Tm=38°C), the “Tm in presence of SAM” value was determined as 41 °C. Further, the “shift in melting temperature (Tm) in presence of SAM” value at hNNMT [4] (listed as JBSFN-107) is “up to 3 °C”; at hNNMT [4] (listed as JBSNF-000107), ~ 3 °C. Moreover, the “shift in melting temperature (Tm) in presence of SAH” value on hNNMT [4] (listed as JBSFN-107) is “up to 11 °C”; on hNNMT [4] (listed as JBSNF-000107), ~ 10 °C. Further, the EC50 in test [3] stood at 1100 ± 200 nM.

In the case of `CCn1c(=N)n2c3c(cccc31)CCC2` [B], the IC50 on hNNMT [1] came to 180 nM.

Turning to `CN1Cc2nn(C)c3c2N(CCC3)C1=N` [Compound (26)], the half-inhibitory concentration (IC50) at hNNMT [1] was above 30000 nM.

With `CNc1ccc(C(N)=O)cn1` [Compound 28, 6-methylaminonicotinamide], in the test with NNMT, the IC50 is 590 nM.

On to `CN1Cc2cccc3c2N(CCN3C)C1=N` [Compound (16)], for which the half-maximal inhibitory concentration (IC50) at hNNMT [1] is above 30000 nM.

As to `CN1Cc2cccc3c2N(CCCC3)C1=N` [Compound (5)], the IC50 at hNNMT [1] is above 30000 nM.

For the compound `CN1Cc2c(F)c(F)cc3c2N(CCC3)C1=N` [Compound (3)], the IC50 was 1200 ± 750 nM at mouse NNMT; 200 nM and 190 nM at hNNMT [1]. Also, the “% MNA reduction” value in test [2] is 14%. For the same compound, the EC50 in test [3] was above 3000 nM.

As for `CN1Cc2cncc3c2N(CCC3)C1=N` [Compound (4)], the IC50 on mouse NNMT amounted to 770 ± 40 nM; at hNNMT [1], 360 ± 100 nM.

With `CN1Cc2cc(F)cc3c2N(CCN3C)C1=N` [Compound (20)], the IC50 at hNNMT [1] is above 3000 nM.

On to `CN1Cc2cccc3c2N(CCS3)C1=N` [Compound (13)], for which the results for the 50% inhibitory concentration (IC50) on mouse NNMT and at hNNMT [1] were 200 ± 20 nM and 860 ± 60 nM, respectively. The “% MNA reduction” value in test [2] was 40%. The EC50 in test [3] was above 10000 nM.

For the compound `CN1Cc2cccc3ccn(c23)C1=N` [Compound (23)], the half-inhibitory concentration (IC50) at hNNMT [1] is above 30000 nM.

Take `CN1Cc2cccc3c2N(CCN3C#N)C1=N` [Compound (14)]: the IC50 was 720 ± 70 nM on mouse NNMT and 250 ± 70 nM at hNNMT [1].

As for `N=c1sc2cccc3c2n1CCC3` [A], the IC50 on hNNMT [1] was found to be 1600 nM.

Regarding `CN1Cc2cc(F)cc3c2N(CCC3)C1=N` [Compound (2)], on mouse NNMT, the concentration for half-maximal inhibition (IC50) stood at 330 ± 130 nM. In test [2], the “% MNA reduction” value was 21%. Also, the half-maximal inhibitory concentration (IC50) on hNNMT [1] came out at 59 ± 4 nM. In test [3], the “Cell based inhibition in U2OS EC50” value was “active” and the EC50 stood at 2200 ± 100 nM.

For `CN1Cc2ccc(F)c3c2N(CC3)C1=N` [Compound (11)], the IC50 at hNNMT [1] is above 1000 nM.

On to `Br.CN1Cc2cc(F)cc3c2N(CCO3)C1=N` [Compound (18)], for which the IC50 is above 3000 nM on mouse NNMT and 69 ± 36 nM on hNNMT [1]. Also, the “% MNA reduction” value in test [2] came to 30%. Also, the concentration giving a half-maximal response (EC50) in test [3] is 2500 ± 200 nM.

Take `CC(=O)N1CCN2C(=N)N(C)Cc3cccc1c32` [Compound (15)]: the half-inhibitory concentration (IC50) on hNNMT [1] is above 30000 nM.

The record behind these values is PMC9474883, “Novel tricyclic small molecule inhibitors of Nicotinamide N-methyltransferase for the treatment of metabolic disorders” (Scientific Reports, 2022).
